Legend:
[1] = Water absorption at 95% relative atmospheric humidity; assay type: physicochemical; conditions: relative atmospheric humidity of 95% (saturated solution of Na2HPO4×12 H2O with sediment in water), within one day
Description: At a relative atmospheric humidity of 95% (established using a saturated solution of Na2HPO4×12 H2O with sediment in water), the solid obtained according to this procedure absorbs approximately 17% by weight of water within one day.
At a relative atmospheric humidity of 95% (established using a saturated solution of Na2HPO4×12 H2O with sediment in water), the solid obtained according to this procedure absorbs approximately 1% by weight of water within one day.

[2] = Storage stability of the crystal modification; assay type: physicochemical
Description: In addition, compared with amorphous CCDC, the modification B tends to absorb less water from the atmosphere. For these reasons, it is highly suitable for preparing tablets or other solid formulations. Owing to its stability, it gives these formulations the desired long-lasting storage stability. Using the crystal modification B, it is therefore possible to prepare, in a defined and targeted manner, stable solid preparations of CCDC.

| SMILES | water absorbed by the solid [1] | stability of crystal modification on prolonged storage [2] |
| --- | --- | --- |
| N#Cc1c(N2C[C@@H]3CCCN[C@@H]3C2)c(F)cc2c(=O)c(C(=O)O)cn(C3CC3)c12 [Comparative Example, 8-cyano-1-cyclopropyl-7-(1 S,6S-2,8-diazabicyclo[4.3.0]nonan-8-yl)-6-fluoro-1,4-dihydro-4-oxo-3-quinolinecarboxylic acid, reference compound] | approximately 17 % by weight | – |
| N#Cc1c(N2C[C@@H]3CCCN[C@@H]3C2)c(F)cc2c(=O)c(C(=O)O)cn(C3CC3)c12 [Example 1, 8-cyano-1-cyclopropyl-7-(1 S,6S-2,8-diazabicyclo[4.3.0]nonan-8-yl)-6-fluoro-1,4-dihydro-4-oxo-3-quinolinecarboxylic acid] | approximately 1 % by weight | does not change into another crystal modification or the amorphous form |

Source: US6664268B1, “Crystal modification B of 8-cyano-1-cyclopropyl-7-(1S,6S-2, 8-diazabicyclo[4.3.0]nonan-8-yl)-6-fluoro-1,4-dihydro-4-oxo-3-quinolinecarboxylic acid” (Bayer Aktiengesellschaft, priority 1998, dated 2003)
